According to patent US20220313698A1, “MODULATORS OF CYSTIC FIBROSIS TRANSMEMBRANE CONDUCTANCE REGULATOR” (Vertex Pharmaceuticals Incorporated, priority 2019, published 2022):

Target: CFTR-mediated chloride transport (Homo sapiens, UniProt P13569)
Test: Corrector Assay A - membrane potential dye assay (enteroid cells)
Conditions: for Corrector Assay A % activity: % of chloride transport of triple combination control (1 μM (14S)-dispiro macrocycle + 3 μM tezacaftor + 300 nM ivacaftor); for EC50: read-out: Corrector Assay A EC50, human intestinal enteroid cells, 18-24 h incubation, acute 10 μM forskolin + 300 nM ivacaftor

## CC(C)(C)c1ccc2c(n1)N1C[C@@H](CC[C@H](c3cccc(CN)n3)Nc3cccc(n3)S(=O)(=O)NC2=O)CC1(C)C [Compound 203, (14S,17R)-17-[6-(aminomethyl)pyridin-2-yl]-8-tert-butyl-12,12-dimethyl-2λ^6-thia-3,9,11,18,23-pentaazatetracyclo[17.3.1.111,14.05,10]tetracosa-1(22),5,7,9,19(23),20-hexaene-2,2,4-trione]
  Corrector Assay A % activity: +++ (+++ is >60%)
  EC50: < 1000 nM

## CC(C)(C)c1ccc2c(n1)N1C[C@@H](CC[C@@H](c3cc(-c4cc[nH]n4)ccn3)Nc3cccc(n3)S(=O)(=O)NC2=O)CC1(C)C (single isomer, unassigned) [Compound 73]
  Corrector Assay A % activity: +++ (+++ is >60%)
  EC50: < 1000 nM

## CC(C)(C)c1ccc2c(n1)N1C[C@@H](CC[C@H](c3cccc(C4CCNCC4)n3)Nc3cccc(n3)S(=O)(=O)NC2=O)CC1(C)C [Compound 132, (14S,17R)-8-tert-Butyl-12,12-dimethyl-17-[6-(piperidin-4-yl)pyridin-2-yl]-2λ^6-thia-3,9,11,18,23-pentaazatetracyclo[17.3.1.111,14.05,10]tetracosa-1(23),5(10),6,8,19,21-hexaene-2,2,4-trione]
  Corrector Assay A % activity: ++ (++ is 30-60%)
  EC50: < 1000 nM

## CC(C)(C)CCOc1cccc(-c2ccc3c(n2)N2C[C@@H](CC[C@H](c4ccccn4)Nc4cccc(n4)S(=O)(=O)NC3=O)CC2(C)C)n1 [Compound 310]
  Corrector Assay A % activity: ++ (++ is 30-60%)
  EC50: < 1000 nM

## CC(C)(C)c1ccc2c(n1)N1C[C@@H](CCC(c3ccc(N)cn3)Nc3cccc(n3)S(=O)(=O)NC2=O)CC1(C)C (stereo partly drawn) [Compound 64, (14S)-17-(5-aminopyridin-2-yl)-8-tert-butyl-12,12-dimethyl-2λ^6-thia-3,9,11,18,23-pentaazatetracyclo[17.3.1.111,14.05,10]tetracosa-1(23),5(10),6,8,19,21-hexaene-2,2,4-trione]
  Corrector Assay A % activity: ++ (++ is 30-60%)
  EC50: < 1000 nM

## CC1(C)C[C@@H]2CC[C@H](c3ccccn3)Nc3cccc(n3)S(=O)(=O)NC(=O)c3ccc(-c4c(Cl)cccc4Cl)nc3N1C2 [Compound 341]
  Corrector Assay A % activity: +++ (+++ is >60%)
  EC50: < 1000 nM

## CC1(C)C[C@@H]2CC[C@H](c3ccccn3)Nc3cccc(n3)S(=O)(=O)NC(=O)c3ccc(C4CCCCC4)nc3N1C2 [Compound 328]
  Corrector Assay A % activity: +++ (+++ is >60%)
  EC50: < 1000 nM

## CC1(C)C[C@@H]2CC[C@H](c3ccccn3)Nc3cccc(n3)S(=O)(=O)NC(=O)c3ccc(C#N)nc3N1C2 [Compound 193, (14S,17R)-12,12-dimethyl-2,2,4-trioxo-17-(pyridin-2-yl)-2λ^6-thia-3,9,11,18,23-pentaazatetracyclo[17.3.1.111,14.05,10]tetracosa-1(22),5,7,9,19(23),20-hexaene-8-carbonitrile]
  Corrector Assay A % activity: +++ (+++ is >60%)
  EC50: > 3000 nM

## COC(=O)NCc1ccnc(C2CC[C@@H]3CN(c4nc(C(C)(C)C)ccc4C(=O)NS(=O)(=O)c4cccc(n4)N2)C(C)(C)C3)c1 (single isomer, unassigned) [Compound 107]
  Corrector Assay A % activity: ++ (++ is 30-60%)
  EC50: < 1000 nM

## CC1(C)CCCc2cc3c(nc21)N1C[C@@H](CCC(c2ccccn2)Nc2cccc(n2)S(=O)(=O)NC3=O)CC1(C)C (single isomer, unassigned) [Compound 264]
  Corrector Assay A % activity: ++ (++ is 30-60%)
  EC50: < 1000 nM

## CC(C)(C)c1ccc2c(n1)N1C[C@@H](CCC(c3cc(C4CCNCC4)ccn3)Nc3cccc(n3)S(=O)(=O)NC2=O)CC1(C)C (stereo partly shown) [Compound 123]
  Corrector Assay A % activity: +++ (+++ is >60%)
  EC50: < 1000 nM

## CC(C)(C)c1ccc2c(n1)N1C[C@@H](CCC(c3ccc(CCC#N)cn3)Nc3cccc(n3)S(=O)(=O)NC2=O)CC1(C)C (single isomer, unassigned) [Compound 145]
  Corrector Assay A % activity: ++ (++ is 30-60%)
  EC50: < 1000 nM

## CC(C)C1CC[C@@H]2CN(c3nc(C(C)(C)C)ccc3C(=O)NS(=O)(=O)c3cccc(n3)N1)C(C)(C)C2 (single isomer, unassigned) [Compound 286]
  Corrector Assay A % activity: +++ (+++ is >60%)
  EC50: < 1000 nM

## CN1CCN(c2ccc(C3CC[C@@H]4CN(c5nc(C(C)(C)C)ccc5C(=O)NS(=O)(=O)c5cccc(n5)N3)C(C)(C)C4)nc2)CC1 (stereo partly drawn) [Compound 201, (14S)-8-tert-butyl-12,12-dimethyl-17-[5-(4-methylpiperazin-1-yl)pyridin-2-yl]-2λ^6-thia-3,9,11,18,23-pentaazatetracyclo[17.3.1.111,14.05,10]tetracosa-1(23),5(10),6,8,19,21-hexaene-2,2,4-trione]
  Corrector Assay A % activity: +++ (+++ is >60%)
  EC50: < 1000 nM

## CC1(C)CCC(c2ccc3c(n2)N2C[C@@H](CC[C@H](c4ccccn4)Nc4cccc(n4)S(=O)(=O)NC3=O)CC2(C)C)CC1 [Compound 326]
  Corrector Assay A % activity: +++ (+++ is >60%)
  EC50: < 1000 nM

## CC(C)(C)c1ccc2c(n1)N1C[C@@H](CCC(c3ccc(C4CC4)cn3)Nc3cccc(n3)S(=O)(=O)NC2=O)CC1(C)C (stereo partly shown) [Compound 169]
  Corrector Assay A % activity: ++ (++ is 30-60%)
  EC50: < 1000 nM

## CC(C)(C)c1ccc2c(n1)N1C[C@@H](CCC(C(=O)O)Nc3cccc(n3)S(=O)(=O)NC2=O)CC1(C)C (single isomer, unassigned) [Compound 231]
  Corrector Assay A % activity: + (+ is <30%)
  EC50: > 3000 nM

## CC(C)(C)c1ccc2c(n1)N1C[C@@H](CC[C@@H](c3ncccc3Br)Nc3cccc(n3)S(=O)(=O)NC2=O)CC1(C)C (single isomer, unassigned) [Compound 54]
  Corrector Assay A % activity: + (+ is <30%)
  EC50: > 3000 nM

## CC(C)(C)OC(=O)NCc1ccnc(C2CC[C@@H]3CN(c4nc(C(C)(C)C)ccc4C(=O)NS(=O)(=O)c4cccc(n4)N2)C(C)(C)C3)c1 (single isomer, unassigned) [Compound 119]
  Corrector Assay A % activity: +++ (+++ is >60%)
  EC50: < 1000 nM

## CC(C)(C)c1cccc(C2CC[C@@H]3CN(c4nc(C(C)(C)C)ccc4C(=O)NS(=O)(=O)c4cccc(n4)N2)C(C)(C)C3)n1 (single isomer, unassigned) [Compound 178]
  Corrector Assay A % activity: + (+ is <30%)
  EC50: < 1000 nM

## CC(C)(C)c1ccc2c(n1)N1C[C@@H](CCC(c3ccc(C4COC4)cn3)Nc3cccc(n3)S(=O)(=O)NC2=O)CC1(C)C (single isomer, unassigned) [Compound 39]
  Corrector Assay A % activity: +++ (+++ is >60%)
  EC50: < 1000 nM

## CC(C)(C)COc1ccn(-c2ccc3c(n2)N2C[C@@H](CC[C@H](c4ccccn4)Nc4cccc(n4)S(=O)(=O)NC3=O)CC2(C)C)n1 [Compound 322]
  Corrector Assay A % activity: ++ (++ is 30-60%)
  EC50: < 1000 nM

## CC(C)COc1cc(F)cc(-c2ccc3c(n2)N2C[C@@H](CCC(c4ccccn4)Nc4cccc(n4)S(=O)(=O)NC3=O)CC2(C)C)c1 (single isomer, unassigned) [Compound 352]
  Corrector Assay A % activity: ++ (++ is 30-60%)
  EC50: < 1000 nM

## CC(C)(C)c1ccc2c(n1)N1C[C@@H](CCC(c3ccc(C4CNC4)cn3)Nc3cccc(n3)S(=O)(=O)NC2=O)CC1(C)C (stereo partly shown) [Compound 165]
  Corrector Assay A % activity: ++ (++ is 30-60%)
  EC50: < 1000 nM

## CC(C)(C)c1ccc2c(n1)N1C[C@@H](CCC(c3cc(CCCN)ccn3)Nc3cccc(n3)S(=O)(=O)NC2=O)CC1(C)C (single isomer, unassigned) [Compound 110]
  Corrector Assay A % activity: + (+ is <30%)
  EC50: > 3000 nM

## CC(C)(C)c1ccc2c(n1)N1C[C@@H](CC[C@@H](c3cc(-c4cn[nH]c4)ccn3)Nc3cccc(n3)S(=O)(=O)NC2=O)CC1(C)C (single isomer, unassigned) [Compound 68]
  Corrector Assay A % activity: +++ (+++ is >60%)
  EC50: < 1000 nM

## CC(C)(C)C#Cc1ccc2c(n1)N1C[C@@H](CC[C@H](c3ccccn3)Nc3cccc(n3)S(=O)(=O)NC2=O)CC1(C)C [Compound 177]
  Corrector Assay A % activity: +++ (+++ is >60%)
  EC50: < 1000 nM

## CC(C)(C)c1ccc2c(n1)N1C[C@@H](CCC(C3CCN(C(=O)OCc4ccccc4)CC3)Nc3cccc(n3)S(=O)(=O)NC2=O)CC1(C)C (single isomer, unassigned) [Compound 255]
  Corrector Assay A % activity: +++ (+++ is >60%)
  EC50: < 1000 nM

## CC(C)(C)c1ccc2c(n1)N1C[C@@H](CCC(C)(c3ccccn3)Nc3cccc(n3)S(=O)(=O)NC2=O)CC1(C)C (single isomer, unassigned) [Compound 44]
  Corrector Assay A % activity: ++ (++ is 30-60%)
  EC50: < 1000 nM

## CC(C)(O)/C=C/CC1CC[C@@H]2CN(c3nc(C(C)(C)C)ccc3C(=O)NS(=O)(=O)c3cccc(n3)N1)C(C)(C)C2 (single isomer, unassigned) [Compound 23]
  Corrector Assay A % activity: +++ (+++ is >60%)
  EC50: < 1000 nM

## C=CCC1CC[C@@H]2CN(c3nc(C(C)(C)C)ccc3C(=O)NS(=O)(=O)c3cccc(n3)N1)C(C)(C)C2 (single isomer, unassigned) [Compound 34]
  Corrector Assay A % activity: +++ (+++ is >60%)
  EC50: < 1000 nM

## Cn1nccc1C1CC[C@@H]2CN(c3nc(C(C)(C)C)ccc3C(=O)NS(=O)(=O)c3cccc(n3)N1)C(C)(C)C2 (single isomer, unassigned) [Compound 284]
  Corrector Assay A % activity: ++ (++ is 30-60%)
  EC50: < 1000 nM

## CC(C)(C)c1ccnc([C@@H]2CC[C@@H]3CN(c4nc5ccccc5cc4C(=O)NS(=O)(=O)c4cccc(n4)N2)C(C)(C)C3)c1 (single isomer, unassigned) [Compound 9]
  Corrector Assay A % activity: +++ (+++ is >60%)
  EC50: < 1000 nM

## CC(C)(C)c1ccc2c(n1)N1C[C@@H](CCC(c3cc(C4COC4)ccn3)Nc3cccc(n3)S(=O)(=O)NC2=O)CC1(C)C (single isomer, unassigned) [Compound 26]
  Corrector Assay A % activity: +++ (+++ is >60%)
  EC50: < 1000 nM

## CC1(C)C[C@@H]2CC[C@H](c3ccccn3)Nc3cccc(n3)S(=O)(=O)NC(=O)c3ccc(-c4cccc(OCC5CC5)n4)nc3N1C2 [Compound 314]
  Corrector Assay A % activity: +++ (+++ is >60%)
  EC50: < 1000 nM
